Measured values: patent publication US20040138212A1, “Disubstituted 1,7-guanines” (priority 2001, published 2004)

Biological target: telomerase enzyme (Homo sapiens, UniProt O14746)
Experiment: Flash Plate-based telomerase assay
Format: biochemical
Settings: telomerase inhibition, two hours of incubation
Excerpt: The telomerase activity of the compounds of the invention has been evaluated using a Flash Plate-based assay. […] Other methods for determining the inhibitory concentration of a compound of the invention against telomerase can be employed as will be apparent to a person skilled in the art based on the disclosure herein.
Briefly, the assay mixture is costituted by:
telomerase enzyme diluted in a buffer, the composition of which has been selected to maintain the enzyme activity stable along the duration of the assay.
dNTPs, deoxynucleotides 5′-triphosphate.
biotynilated oligo as primer.
increasing concentrations of test compounds/positive control.
After two hours of incubation at […] the telomeric repeats added are evaluated by hybridization in solution with a 3′-labeled short oligonucleotide probe.
The extent of hybridization is then quantitated by transferring the reaction mixture in a streptavidin-coated flash plate, where the binding between biotin and streptavidin occurs.
The telomerase activity is proportional to the radioactivity measured and the inhibitory activity of the compounds is evaluated as IC50 using the Sigma Plot fit program.
With the above-described method, IC50 values of the compounds of the present invention were determined.

telomerase enzyme, sequence (O14746 whole entry): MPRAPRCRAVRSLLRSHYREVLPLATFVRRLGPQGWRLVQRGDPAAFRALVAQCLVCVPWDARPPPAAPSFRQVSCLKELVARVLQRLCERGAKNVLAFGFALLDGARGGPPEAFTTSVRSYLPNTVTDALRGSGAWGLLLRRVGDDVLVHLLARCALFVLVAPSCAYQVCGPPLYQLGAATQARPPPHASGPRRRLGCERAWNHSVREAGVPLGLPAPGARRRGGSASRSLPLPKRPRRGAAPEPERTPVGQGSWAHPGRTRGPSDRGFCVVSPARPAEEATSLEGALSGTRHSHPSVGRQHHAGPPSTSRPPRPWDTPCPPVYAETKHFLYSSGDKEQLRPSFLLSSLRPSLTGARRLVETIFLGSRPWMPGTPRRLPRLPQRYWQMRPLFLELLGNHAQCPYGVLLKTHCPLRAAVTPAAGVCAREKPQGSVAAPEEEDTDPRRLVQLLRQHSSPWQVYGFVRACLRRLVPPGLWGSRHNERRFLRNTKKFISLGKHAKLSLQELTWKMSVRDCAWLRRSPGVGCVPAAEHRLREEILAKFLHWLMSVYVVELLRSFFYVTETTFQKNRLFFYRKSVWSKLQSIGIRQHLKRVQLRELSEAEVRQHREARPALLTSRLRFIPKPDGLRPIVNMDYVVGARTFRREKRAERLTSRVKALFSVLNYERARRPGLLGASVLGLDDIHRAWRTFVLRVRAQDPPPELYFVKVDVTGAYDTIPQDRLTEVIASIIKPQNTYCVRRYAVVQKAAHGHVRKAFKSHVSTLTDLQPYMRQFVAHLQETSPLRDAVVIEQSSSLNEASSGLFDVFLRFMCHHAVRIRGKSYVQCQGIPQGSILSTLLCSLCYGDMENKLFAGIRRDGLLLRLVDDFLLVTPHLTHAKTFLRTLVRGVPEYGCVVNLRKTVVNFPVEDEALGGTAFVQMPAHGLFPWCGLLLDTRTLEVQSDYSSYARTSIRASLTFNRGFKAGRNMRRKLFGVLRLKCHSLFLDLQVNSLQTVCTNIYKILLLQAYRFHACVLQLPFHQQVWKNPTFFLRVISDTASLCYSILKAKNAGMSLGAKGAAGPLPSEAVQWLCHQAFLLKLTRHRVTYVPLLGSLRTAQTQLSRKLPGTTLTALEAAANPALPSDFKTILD

COC(=O)c1ccc(Cn2c(N)nc3ncn(Cc4ccc(C(=O)OC)cc4)c3c2=O)cc1 [compound 13, methyl 4-({2-amino-7-[4-(methoxycarbonyl)benzyl]-6-oxo-6,7-dihydro-1H-purin-1-yl}methyl) benzoate]
IC50: 12.3 µM
